US20090202997A1, “Cell-Free In Vitro Transcription and Translation of Membrane Proteins into Tethered Planar Lipid Layers” (priority 2005, published 2009)

System: odorant receptor OR5
Test: IR spectroscopy of OR5/tBLM system upon addition of odorant
Assay type: binding, rat
Protocol: The activity of incorporated odorant receptors was measured using IR spectroscopy.

signal change of the IR amide I peak (recognition of the odor by the receptor) (1 mM lilial added to tBLM integrated OR5): recognition of the odor by the receptor
reversibility of the lilial/OR5 interaction (rinsing with PBS): can be reversed by rinsing with PBS
Structure (SMILES): CC(C=O)Cc1ccc(C(C)(C)C)cc1 (centres unmarked) [lilial]
